Test results published in paper PMC9635472, “Design, synthesis, and biological evaluation of novel ciprofloxacin derivatives as potential anticancer agents targeting topoisomerase II enzyme” (Journal of Enzyme Inhibition and Medicinal Chemistry, 2022).
Where “and” joins values, the source holds several entries; their conditions need not be identical. Identical values can stand only once.

Legend:
[1] = system: Human bladder cancer (T-24) cell line; assay: MTT cell viability assay, T-24 cells; type: cell-based; details: bladder cancer cell line T-24, treatment for 24 h (table title), means of three experiments, read-out: IC50 (μM* ± SD) T-24
Protocol: (§1) Human bladder cancer (T-24) and human prostate carcinoma (PC-3) cell lines were obtained from American Type Culture Collection (ATCC; Manassas, VA USA). Cells were maintained in Dulbecco’s modified Eagle medium with 10% foetal bovine serum at 37 °C and 5% CO2. All the operations were carried out under strict aseptic conditions. The culture medium was removed to a centrifuge tube containing 9.0 ml complete culture medium and spanned at approximately 125 × g for 5 to 7 min. The cell layer was rinsed with 0.25% (w/v) trypsin- […] EDTA solution by which all traces of serum-containing inhibitor were removed. Trypsin EDTA solution 2.0 to 3.0 ml was added to a flask and cells were monitored under an inverted microscope until the cell layer was dispersed (usually within 5–15 min). A complete growth medium was added (6.0–8.0 ml), and cells were aspirated by gentle pipetting. The cell pellet was suspended with the recommended complete medium and dispensed into a 75 cm^2 culture flask. The culture vessel containing the complete growth medium was placed in the incubator for 24 h to at 37 °C. The cells were treated with different concentrations (0.39, 1.60, 6.25, 25, and 100 μg/ml) of each of the test compounds or doxorubicin, […], then the plates were examined under the inverted microscope and finally the MTT assay was carried out.
(§2) Anti-cancer activity of the newly synthesised compounds was evaluated in vitro against both T-24 and PC-3 cell lines according to the MTT method. Cells were seeded into 96-well plates (flat bottom) at a density of 10 000 cells/well for 24 h. The vial of MTT to be used was reconstituted with 3 ml of medium or balanced salt solution without phenol red and serum. then, a reconstituted MTT vial was added in an amount equal to 10% of the culture medium volume. Cultures were incubated for 2–4 h depending on the cell type and maximum cell density and removed from the incubator and the formazan crystals were dissolved via the addition of an amount of MTT solubilisation solution (M-8910) equal to the original culture medium volume. ROBONIK P2000 spectrophotometer at a wavelength of 570 nm was used to measure the colour intensity spectrophotometrically. The survival curve of both T-24 and PC-3 cells was obtained by plotting the percentage of surviving cells against the drug after each compound. The IC50 value for each test compound and the reference drug doxorubicin was calculated.
(§3) In this study, all the newly synthesised CP derivatives were subjected to anticancer activity evaluation against bladder (T-24) and prostate cancer (PC-3) cell lines. The compounds were evaluated for their activity using 5 doses determinations (100 μg/ml, 25 μg/ml, 6.25 μg/ml, 1.60 μg/ml, and 0.39 μg/ml). Their half-maximal inhibitory concentration (IC50) values were measured. Doxorubicin was chosen as a reference anticancer drug[65].

[2] = system: human prostate carcinoma (PC-3) cell line; assay: MTT cell viability assay, PC-3 cells; type: cell-based; details: prostate cancer cell line PC-3, treatment for 24 h (table title), means of three experiments, read-out: IC50 (μM* ± SD) PC-3
Protocol: as §1, §2, §3

T-24 cells [3] = assay: Cell cycle analysis (propidium iodide flow cytometry), T-24 cells; type: cell-based, human; details: for phase of cell cycle arrest: T-24 cancer cells
Protocol: (§4) The cell cycle was done using a propidium iodide flow cytometry kit (Abcam, ab139418) according to the manufacturer’s instructions. […] After treatment, the cells were washed twice with ice-cold phosphate buffer saline, then centrifuged and fixed using ice-cold 66% (v/v) ethanol, washed with phosphate buffer saline re-suspended with 0.10 mg/ml, and stained with 200 µl propidium iodide. Cells were analysed by flow cytometry. The cell cycle distributions were calculated using cell–quest software (Bectopn Dickinson).
While the accumulation of the cells in the S phase might result from the cell cycle arrest of T-24 cells in the S phase.

PC-3 cells [4] = assay: Cell cycle analysis (propidium iodide flow cytometry), PC-3 cells; type: cell-based, human; details: for phase of cell cycle arrest: PC-3 cells at IC50 concentrations
Protocol: as §4
Topoisomerase inhibitors cause DNA damage which is related to G1/S and S phase arrest. Cell cycle arrest prevents the replication of damaged DNA. In PC-3 cell line compounds 6 and 8a probably arrested the cell cycle in the G1 phase by inhibition of Cyclin D–Cdk4–Cdks complex, however in the T-24 cell line, they might arrest the cell cycle in the S phase by the inhibition of both Cyclin D–Cdk4–Cdks complex and cyclins E1–E2/Cdk2, which promote G1/S transition.

T-24 cells [5] = assay: Apoptosis determination by annexin V-FITC/PI assay, T-24 cells; type: cell-based, human; details: at IC50, 24 h
Protocol: (§5) Apoptosis was evaluated using Annexin V fluorescein isothiocyanate (FITC) and propidium iodide (PI) using the Annexin V-FITC/PI apoptosis detection kit (Biovision, Mountain View, CA # K101-25). According to the manufacturer’s instructions after staining the cells with annexin V fluorescein (FITC) isothiocyanate. […] Cells were centrifuged and washed once with serum-containing media followed by resuspension in 500 µl of binding buffer. Then 5 µl Annexin V-FITC and 5 µl of (PI […]) were added and incubated for 5 min at room temperature in the dark. Analyses were performed using a flow cytometer (EX = 488 nm: Em = 530 nm) using a FITC signal detector and PI staining by a phycoerythrin emission signal detector.
To verify the ability of compounds 6 and 8a to induce apoptosis, a flow cytometry assay was performed using propidium iodide (PI), and immunofluorescent markers of the protein annexin-V. Dual staining for annexin-V and with PI provides the distinction between viable cells, early apoptotic cells, late apoptotic cells, and necrotic cells. […] While compound 8a induced both early and late apoptosis with 21.16- and 114.90-fold more than the control, respectively, and induced total apoptosis and necrosis with 20.1- and 4.28-fold more than the control, sequentially (Figure 14).

PC-3 cells [6] = assay: Apoptosis determination by annexin V-FITC/PI assay, PC-3 cells; type: cell-based, human; details: at IC50, 24 h
Protocol: as §5
While compound 8a induced both early and late apoptosis with 41.15- and 76.77-fold more than the control, respectively, and induced total apoptosis and necrosis with 14.87- and 2.44-fold more than the control, sequentially (Figure 16).

active caspase-3 = assay: Active caspase-3 ELISA in T-24 cells; type: cell-based, human; details: 6 at 5.68 μM, 8a at 3.36 μM; for Caspase-3 conc. (pg/ml* ± SD): means of three experiments
Protocol: The level of the apoptotic marker caspase-3 was measured using The Invitrogen Caspase-3 (active) Human ELISA Kit. The procedure of the used kit was done according to the manufacturer’s instructions.
Caspase-3 (a key effector enzyme) plays an important role in apoptosis since its activation leads to catalysing specific enzymes responsible for DNA fragmentation, which leads to cell death. Apoptosis induction in T-24 cells by compounds 6 and 8a was investigated via caspase 3, compared to doxorubicin as a reference drug.

Row | Compound | IC50 [1] [µM] | IC50 [2] [µM] | phase of cell cycle arrest (T-24 cells [3]) | increase in the percentage of cells in the S phase compared to the control (T-24 cells [3]; T-24 cells, at IC50, 24 h) [fold] | phase of cell cycle arrest (PC-3 cells [4]) | decrease in the percentage of cells at the G2/M phase (PC-3 cells [4]; PC-3 cells, at IC50, 24 h) [fold] | increase in the percentage of cells at the G1 phase compared to the control (PC-3 cells [4]; PC-3 cells, at IC50, 24 h) [fold] | early apoptosis, fold more than the control (T-24 cells [5]) [fold] | late apoptosis, fold more than the control (T-24 cells [5]) [fold] | necrosis, fold more than the control (T-24 cells [5]) [fold] | total apoptosis, fold more than the control (T-24 cells [5]) | early apoptosis, fold more than the control (PC-3 cells [6]) [fold] | late apoptosis, fold more than the control (PC-3 cells [6]) [fold] | necrosis, fold more than the control (PC-3 cells [6]) [fold] | total apoptosis, fold more than the control (PC-3 cells [6]) [fold] | increase in level of active caspase-3 compared to the control (active caspase-3) [fold] | Caspase-3 conc. (pg/ml* ± SD) (active caspase-3) [pg/mL] | increase in the percentage of cells at pre-G1 compared to the control (T-24 cells [3]; T-24 cells, at IC50, 24 h) [fold]
1 | O=C1CC(=O)N(C(=O)CN2CCN(c3cc4c(cc3F)c(=O)c(C(=O)O)cn4C3CC3)CC2)N1 [Compound 6, 1-cyclopropyl-7-(4-(2-(3,5-dioxopyrazolidin-1-yl)-2-oxoethyl)piperazin-1-yl)-6-fluoro-4-oxo-1,4-dihydroquinoline-3-carboxylic acid] | 5.68 ± 0.3 | 92.2 ± 4.69 | S phase | 1.4 | G1-phase cell cycle arrest | 1.5 | 1.16 | 16.27 | 83.38 | 6.25 | 16.77 fold and 16.8 fold | 54.69 | 31.72 | 1.62 | 13.02 | 5.23 | 362.9 ± 8.58 | 
2 | O=C(CN1CCN(c2cc3c(cc2F)c(=O)c(C(=O)O)cn3C2CC2)CC1)NN=C1C(=O)Nc2ccccc21 [Compound 8a, 1-Cyclopropyl-6-fluoro-4-oxo-7-(4-(2-oxo-2-(2-(2-oxoindolin-3-ylidene)hydrazinyl)ethyl)piperazin-1-yl)-1,4-dihydroquinoline-3-carboxylic acid] | 3.36 ± 0.19 | 11 ± 0.56 | S phase | 1.11 | G1-phase cell cycle arrest |  | 1.27 | 21.16 | 114.90 | 4.28 | 20.1 fold | 41.15 | 76.77 | 2.44 | 14.87 | 7.6 | 527.6 ± 8.39 | 20.1
